In US10053485B2, “Cytotoxic agents that preferentially target leukemia inhibitory factor (LIF) for the treatment of malignancies and as new contraceptive agents” (Evestra, Inc., priority 2015, dated 2018):

Tests used:
CAKI-1 = experiment: NCI-60 screen, Renal Cancer panel; format: cell-based; details: Homo sapiens, CAKI-1, 48 h
[1] = tested on: LIF-overexpressing MCF-7 (MCF-7 LIF) human breast cancer cells; experiment: LIF specificity assay, LIF-overexpressing cells; format: cell-based
OVCAR-4 = experiment: NCI-60 screen, Ovarian Cancer panel; format: cell-based; details: Homo sapiens, OVCAR-4, 48 h
OVCAR-8 = experiment: NCI-60 screen, Ovarian Cancer panel; format: cell-based; details: Homo sapiens, OVCAR-8, 48 h
LOX IMVI = experiment: NCI-60 screen, Melanoma panel; format: cell-based; details: Homo sapiens, 48 h
A549 (Lung cancer) = experiment: Short term (72 h) cytotoxicity assay; format: cell-based, human; details: Homo sapiens; A549, 72 h cytotoxicity
[2] = tested on: Ishikawa (Endometrial Cancer); experiment: Short term (72 h) cytotoxicity assay; format: cell-based; details: Homo sapiens
[3] = tested on: PC3 (AR− Prostate Cancer); experiment: Short term (72 h) cytotoxicity assay; format: cell-based; details: Homo sapiens, PC3, 72 h cytotoxicity
[4] = tested on: Patient derived tumor (melanoma): p53, LIF, MDM2, pSTAT3, Ki67; experiment: Immunohistochemistry analysis of patient derived tumor; format: cell-based, human; details: 10 nM and 1 uM for 5 days, FIG. 10
Procedure: Patient derived tumor (melanoma) was treated with the compounds at 10 nM and 1 uM for 5 days in RPMI medium and harvested on day 6 using established protocol and immunohistochemistry was performed for different antibodies including p53, LIF, MDM2, pSTAT3, Ki67.

[5] = tested on: IGROV-1 (Ovarian cancer cells); experiment: Short term (72 h) cytotoxicity assay; format: cell-based; details: Homo sapiens; IGROV-1, 72 h cytotoxicity
BT-549 = experiment: NCI-60 screen, Breast Cancer panel; format: cell-based; details: Homo sapiens, BT-549, 48 h
SK-OV-3 = experiment: NCI-60 screen, Ovarian Cancer panel; format: cell-based; details: Homo sapiens, SK-OV-3, 48 h
HCT-15 = experiment: NCI-60 screen, Colon Cancer panel; format: cell-based; details: Homo sapiens, HCT-15, 48 h
IGROV1 = experiment: NCI-60 screen, Ovarian Cancer panel; format: cell-based; details: Homo sapiens, IGROV-1; IGROV1, 48 h, SRB; read-out: GI50 (log10GI50) (converted)
Procedure: Additional four, 10-fold or ½ log serial dilutions are made to provide a total of five drug concentrations plus control.
For adherent cells, the assay is terminated by the addition of cold TCA. Cells are fixed in situ by the gentle addition of 50 μl of cold 50% (w/v) TCA (final concentration, 10% TCA) and incubated for 60 minutes at 4° C. The supernatant is discarded, and the plates are washed five times with tap water and air dried. Sulforhodamine B (SRB) solution (100 μl) at 0.4% (w/v) in 1% acetic acid is added to each well, and plates are incubated for 10 minutes at room temperature. After staining, unbound dye is removed by washing five times with 1% acetic acid and the plates are air dried. […] Using the seven absorbance measurements [time zero, (Tz), control growth, (C), and test growth in the presence of drug at the five concentration levels (Ti)], the percentage growth is calculated at each of the drug concentrations levels.
Three dose response parameters are calculated for each experimental agent. […] The drug concentration resulting in total growth inhibition (TGI) is calculated from Ti=Tz. […] Values are calculated for each of these three parameters if the level of activity is reached; however, if the effect is not reached or is exceeded, the value for that parameter is expressed as greater or less than the maximum or minimum concentration tested.

HCC-2998 = experiment: NCI-60 screen, Colon Cancer panel; format: cell-based; details: Homo sapiens, HCC 2998, 48 h
U251 = experiment: NCI-60 screen, CNS Cancer panel; format: cell-based; details: Homo sapiens, U-251, 48 h
SF-268 = experiment: NCI-60 screen, CNS Cancer panel; format: cell-based; details: Homo sapiens, SF-268, 48 h
MCF7 = experiment: NCI-60 screen, Breast Cancer panel; format: cell-based; details: Homo sapiens, MCF7, 48 h
[6] = tested on: MDM2 / P53 in MCF-7 cells; experiment: P53 / MDM2 levels in MCF-7 cells (FIG. 5); format: cell-based, human
A549/ATCC = experiment: NCI-60 screen, Non-Small Cell Lung Cancer panel; format: cell-based; details: Homo sapiens, A549, 48 h
NCI-H522 = experiment: NCI-60 screen, Non-Small Cell Lung Cancer panel; format: cell-based; details: Homo sapiens, NCI-H522, 48 h
HL-60(TB) = experiment: NCI-60 screen, Leukemia panel; format: cell-based; details: Homo sapiens, HL-60, 48 h
MALME-3M = experiment: NCI-60 screen, Melanoma panel; format: cell-based; details: Homo sapiens, 48 h
HCT-116 = experiment: NCI-60 screen, Colon Cancer panel; format: cell-based; details: Homo sapiens, HCT-116, 48 h
[7] = read-out: GI50 (log10GI50) (converted)
[8] = read-out: LC50 (log10LC50) (converted)

In the case of `C#CC(F)(F)[C@]1(O)CCC2C3CCC4=CC(=O)CCC4=C3C(c3ccc(C4CC4)cc3)C[C@@]21C` (stereo partly drawn) [EC330, 17α-(1,1-difluoro-2-propyn-1-yl)-17β-hydroxy-11β-[4-p-(cyclopropyl)phenyl]estra-4,9-dien-3-one], the GI50 (CAKI-1; [7]) is reported as 29.5 nM, the CC50 (CAKI-1; [8]) is reported as greater than 100000 nM and the IC50 ([1]; Homo sapiens, MCF7, read-out: MCF-7 LIF IC50) is reported as 80 nM. The “vulnerability of LIF overexpressing cells to cell death” value ([1]; LIF-overexpressing vs. unmodified MCF-7, in words) was “more vulnerable to cell death”, the GI50 (OVCAR-4; [7]) was 3890 nM and the CC50 (OVCAR-4; [8]) was greater than 100000 nM. For the same compound, the GI50 (OVCAR-8; [7]) was 1550 nM, the CC50 (OVCAR-8; [8]) was greater than 100000 nM and the GI50 (LOX IMVI; [7]) was less than 10 nM. It also gave a CC50 (LOX IMVI; [8]) of less than 10 nM, an IC50 (A549 (Lung cancer)) of 25 nM and an IC50 [2] of 5 nM. For the same compound, the IC50 [3] was 30 nM, the “apoptosis, p53, MDM2, LIF mediated STAT3 phosphorylation (immunohistochemistry)” value [4] was “induce apoptosis and restore p53 by inhibiting MDM2 and LIF mediated STAT3 phosphorylation” and the IC50 [5] was 35 nM. The GI50 (BT-549; [7]) was 2090 nM, the CC50 (BT-549; [8]) was greater than 100000 nM and the GI50 (SK-OV-3; [7]) was 117 nM. For the same compound, the CC50 (SK-OV-3; [8]) was 661 nM, the GI50 (HCT-15; [7]) was 1480 nM and the CC50 (HCT-15; [8]) was greater than 100000 nM. The GI50 (IGROV1) was less than 10 nM, the GI50 (HCC-2998; [7]) was 2950 nM and the CC50 (HCC-2998; [8]) was greater than 100000 nM. The GI50 (U251; [7]) was 151 nM, the CC50 (U251; [8]) was 5370 nM and the GI50 (SF-268; [7]) was 126 nM. The CC50 (SF-268; [8]) was 1550 nM, the GI50 (MCF7; [7]) was 1230 nM and the CC50 (MCF7; [8]) was greater than 100000 nM. For the same compound, the “P53 levels / MDM2” value [6] was “restore P53 levels by inhibiting MDM2”, the GI50 (A549/ATCC; [7]) was 2450 nM and the CC50 (A549/ATCC; [8]) was greater than 100000 nM. The GI50 (NCI-H522; [7]) was less than 10 nM, the CC50 (NCI-H522; [8]) was less than 10 nM and the GI50 (HL-60(TB); [7]) was less than 10 nM. It also gave a CC50 (HL-60(TB); [8]) of less than 10 nM, a GI50 (MALME-3M; [7]) of less than 10 nM and a CC50 (MALME-3M; [8]) of 81.3 nM. It also gave a GI50 (HCT-116; [7]) of 2820 nM and a CC50 (HCT-116; [8]) greater than 100000 nM.
